According to US20060074091A1, “Nootropic effect enhancer” (priority 2000, published 2006):

System: Fischer male rats with Meynert's basal nuclei damage
Experiment: Passive avoidance learning test (mneme test) in rats with ibotenic acid injury of Meynert's basal nuclei
Assay type: in vivo, rat
Details: 0.1 mg/kg
Procedure: A solution prepared by dissolving ibotenic acid in physiological saline to have a concentration of 8 μg/μl was injected into the Meynert's basal nuclei of Fischer male rats (n=12 to 13, 11-weeks old when used in the experiment). One μl of the solution was injected thereinto over a period of 6 minutes, and then the rats were left as they were for 5 minutes to thereby make them have bilateral injury. Three weeks after the treatment, they were used in the experiment. Before the experiment, they were handled for 3 days. In the mneme test, the rats were first put into the light room of a passive avoidance learning test device, and the latent time taken before they entered the dark room was measured (acclimation trial). […] Then, the rats were made to receive electric shock (0.4 mA, 4 seconds) via the grid of the floor of the dark room (acquirement trial) 24 hours after the acquirement trial, the rats were again transferred into the light room, and the reaction latent time taken before the rats entered the dark room was measured up to at most 300 seconds (retention trial). […] The dose of each of the two substances was determined on the basis of the test results previously made for the efficacy of the single administration of each substance to the same models. […]

Row | SMILES | effect on reaction latent time in single administration (in words)
1 | CC(=O)N1CCN(NC(=O)c2ccc(F)cc2)CC1 [FK960, N-(4-acetyl-1-piperazinyl)-p-fluorobenzamide Monohydrate] | ineffective
2 | COc1cc2c(cc1OC)C(=O)C(CC1CCN(Cc3ccccc3)CC1)C2.Cl (centres unmarked) [E2020, Donepedil Hydrochloride] | ineffective
